Assay results as given in patent US20180007910A1, “FUNGICIDAL COMPOSITION EFFECTIVE AGAINST ALTERNARIA ON CITRUS” (ARYSTA LIFESCIENCE BENELUX SPRL, priority 2015, published 2018).

Assays:
Alternaria alternata = assay: Field trial 2014, control of Alternaria alternata on mandarins (Alzira, Valencia, Spain); assay type: in vivo; conditions: Syllit 544 g/l suspension concentrate; spring, autumn and combined treatments; OECD criteria; FIG. 9
Protocol: (§1) A field trial was conducted for the control of Alternaria alternata on mandarins in Alzira, Valencia, Spain. The product used was Syllit 544 g/l suspension concentrate. Mandarins were harvested and classified using the OECD criteria (international quality standard for citrus established by the Organisation for Economic Co-operation and Development in 2010).

mandarins = assay: Phytotoxicity observation in field trial 2014; assay type: in vivo; conditions: field trial 2014 on mandarins, Syllit 544 g/l suspension concentrate
Protocol: as §1

In the case of `CC(=O)O.CCCCCCCCCCCCNC(=N)N` [Dodine, 1-dodecylguanidiniumethanoate], the “percentage of fruits in the category Extra compared to control group” value (Alternaria alternata) is reported as “significantly higher percentage of fruit” and the symptoms of phytotoxicity (mandarins) is reported as “No symptoms of phytotoxicity were observed”.
